Measured values taken from patent US8343959B2, “N-phenyl-(piperazinyl or homopiperazinyl)-benzenesulfonamide or benzenesulfonyl-phenyl-(piperazine or homopiperazine) compounds suitable for treating disorders that respond to modulation of the serotonin 5-HT6 receptor” (Abbott GmbH & Co. KG, priority 2009, dated 2013).
pKi: −log10 of the molar value. Counter-ions that a name gives are not always drawn.

Target: T1, h-5-HT6 receptor (Homo sapiens, UniProt P50406)
T1 construct: expressed in transfected cells
Test: 5-HT6 receptor binding assay (displacement of [3H]-LSD)
Conditions: membranes of HEK293 cells expressing h-5-HT6 receptor, 1 nM [3H]-LSD; read-out: Ki (5HT6)
Method: Displacement of Radioligands Binding to The Following Cloned Human Receptors
Cells from stable clonal cell lines expressing the corresponding receptor (5-HT6, α1-adrenergic, dopamine D2 or histamine H1 receptors) were washed with PBS (w/o Ca^++, Mg^++) and harvested in PBS with 0.02% EDTA. The cells were collected by centrifugation at 500 g for 10 min. at 4° C., washed with PBS and centrifuged (500 g, 10 min. 4° C.). The pellets were stored at −80° C. until use. For membrane preparation, the thawed cell pellet was resuspended in ice-cold sucrose buffer (0.25 M sucrose, 10 mM Hepes (pH 7.4), 1 mM Phenylmethylsulfonyl fluoride (PMSF) in DMSO, 5 μg/ml Pepstatin-A, 3 mM EDTA, 0.025% Bacitracin) and homogenized with a Branson Sonifier W-250 (Settings: Timer 4; Output Control 3; Duty Cycle constant; 2 to 3 cycles). Cell disruption was checked with the aid of a microscope. Remaining unbroken cells were pelleted at 1.000 g for 10 min. at 4° C. The sucrose buffer supernatant was then centrifuged at 60.000 g for 1 h at 4° C. (Beckman Ultrazentrifuge XL 80). The pellet was resuspended in 30 ml ice-cold Tris buffer (20 mM TRIS (pH 7.4), 5 μg/ml Pepstatin A, 0.1 mM PMSF, 3 mM EDTA) by pipetting through a 10 ml serological pipet and centrifuged for 1 h at 4° C. at 60.000 g. A final resuspension was performed in a small volume of ice-cold Tris buffer (see above) by pressing through a serological pipet followed by ultrasonic treatment with a Branson Sonifier W-250 (Settings: Timer 1; Output Control 3; Duty Cycle constant; 1 cycle). Protein concentration was determined (BCA-Kit; Pierce) and aliquots stored at −80° C. or in liquid nitrogen for long-term storage.
All receptor binding experiments were carried out in the corresponding assay buffer in a total volume of 200 μl in the presence of various concentrations of test compound (10^−5 M to 10^−9 M, tenfold serial dilution, duplicate determinations). The assays were terminated by filtration on polyethylenimine (PEI 0.1% or 0.3%) presoaked Packard Unifilter Plates (GF/C or GF/B) with a Tomtec Machin U 96 well-plate harvester. After the plates had been dried for 2 h at 55° C. in a drying chamber scintillation cocktail (BetaPlate Scint; PerkinElmer) was added. Radioactivity was measured in a Microbeta Trilux two hours after the addition of the scintillation mixture. Data derived from liquid scintillation counting were analysed by iterative non-linear regression analysis with the use of the Statistical Analysis System (SAS): a program similar to “LIGAND” as described by Munson and Rodbard (Analytical Biochemistry 107, 220-239 (1980).
HEK293 cells stably expressing the h-5-HT6 receptor (NCBI Reference Sequence XM 001435) were cultured in RPMI1640 medium supplemented with 25 mM HEPES, 10% fetal calf serum and 1-2 mM glutamine. The membrane preparation was performed as described in section 1. […] Non-specific binding was defined with 1 μM methiothepin. The binding reaction was carried out for 3.5 h at room temperature. During the incubation, the plates were shaken on a plate shaker at 100 rpm and terminated by filtration on Packard Unifilter GF/C (0.1% PEI) plates, followed by 2 wash cycles with ice-cold 50 mM Tris-HCl, 5 mM CaCl2.
Data derived from liquid scintillation counting were analyzed by iterative non-linear regression analysis with the use of the Statistical Analysis System (SAS): a program similar to “LIGAND” as described by Munson and Rodbard (Anal. Biochem. 1980, 107, 220-239). Fitting was performed according to formulae described by Feldman (Anal. Biochem. 1972, 48, 317-338). IC50, nH and Ki values were expressed as geometrical mean.

T1 sequence (P50406 whole entry): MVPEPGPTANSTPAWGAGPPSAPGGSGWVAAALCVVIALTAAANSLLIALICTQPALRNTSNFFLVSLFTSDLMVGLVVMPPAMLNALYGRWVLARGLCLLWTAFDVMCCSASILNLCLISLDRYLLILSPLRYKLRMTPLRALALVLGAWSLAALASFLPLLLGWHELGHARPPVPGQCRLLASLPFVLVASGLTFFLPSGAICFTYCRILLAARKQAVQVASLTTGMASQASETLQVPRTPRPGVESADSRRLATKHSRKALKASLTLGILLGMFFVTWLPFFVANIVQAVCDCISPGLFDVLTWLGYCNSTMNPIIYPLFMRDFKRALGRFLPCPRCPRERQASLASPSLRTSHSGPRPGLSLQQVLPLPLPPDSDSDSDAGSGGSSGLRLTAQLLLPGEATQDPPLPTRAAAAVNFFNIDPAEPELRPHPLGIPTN

SMILES | pKi
Cc1ccc(S(=O)(=O)Nc2cccc3c2OC(F)(F)O3)cc1N1CCNCC1 [Example 8, N-(2,2-Difluoro-benzo[1,3]dioxol-4-yl)-4-methyl-3-piperazin-1-yl-benzenesulfonamide hydrochloride] | > 6.30
Cc1ccc(NS(=O)(=O)c2ccc(C)c(N3CCNCC3)c2)cc1OC(F)F [Example 6, N-(3-Difluoromethoxy-4-methyl-phenyl)-4-methyl-3-piperazin-1-yl-benzene-sulfonamide hydrochloride] | > 7.30
Cc1ccc(S(=O)(=O)Nc2ccccc2OC(F)F)cc1N1CCN(C)CC1 [Example 5, N-(2-Difluoromethoxy-phenyl)-4-methyl-3-(4-methyl-piperazin-1-yl)-benzenesulfonamide hydrochloride] | > 7.30
CCN(c1cccc(OC(F)F)c1)S(=O)(=O)c1ccc(C)c(N2CCNCC2)c1 [Example 13, N-(3-Difluoromethoxy-phenyl)-N-ethyl-4-methyl-3-piperazin-1-yl-benzene sulfonamide hydrochloride] | > 7.30
COc1ccc(S(=O)(=O)Nc2ccc(C)c(OC(F)F)c2)cc1N1CCNCC1 [Example 18, N-(3-Difluoromethoxy-4-methyl-phenyl)-4-methoxy-3-piperazin-1-yl-benzene-sulfonamide hydrochloride] | > 8.00
COc1ccc(S(=O)(=O)Nc2ccc(OC(F)F)c(OC(F)F)c2)cc1N1CCNCC1 [Example 60, N-(3,4-Bis-difluoromethoxy-phenyl)-4-methoxy-3-piperazin-1-yl-benzenesulfonamide hydrochloride] | > 8.00
CCc1ccc(S(=O)(=O)Nc2ccc(C)cc2OC(F)F)cc1N1CCNCC1 [Example 62, N-(2-Difluoromethoxy-4-methyl-phenyl)-4-ethyl-3-piperazin-1-yl-benzenesulfonamide hydrochloride] | > 8.00
Cc1ccc(S(=O)(=O)N(CC2CC2)c2ccccc2OC(F)F)cc1N1CCNCC1 [Example 9, N-Cyclopropylmethyl-N-(2-difluoromethoxy-phenyl)-4-methyl-3-piperazin-1-yl-benzenesulfonamide hydrochloride] | > 6.30
CCCN(c1ccccc1OC(F)F)S(=O)(=O)c1ccc(C)c(N2CCNCC2)c1 [Example 11, N-(2-Difluoromethoxy-phenyl)-4-methyl-3-piperazin-1-yl-N-propyl-benzene-sulfonamide hydrochloride] | > 6.30
COc1ccc(S(=O)(=O)Nc2cc(Cl)ccc2OC(F)F)cc1N1CCN(C)CC1 [Example 53, N-(5-Chloro-2-difluoromethoxy-phenyl)-4-methoxy-3-(4-methyl-piperazin-1-yl)-benzenesulfonamide hydrochloride] | > 8.00
COc1ccc(NS(=O)(=O)c2ccc(OC)c(N3CCN(C)CC3)c2)cc1OC(F)F [Example 38, N-(3-Difluoromethoxy-4-methoxy-phenyl)-4-methoxy-3-(4-methyl-piperazin-1-yl)-benzenesulfonamide hydrochloride] | > 8.00
CCN(c1ccccc1OC(F)F)S(=O)(=O)c1ccc(OC)c(N2CCNCC2)c1 [Example 31, N-(2-Difluoromethoxy-phenyl)-N-ethyl-4-methoxy-3-piperazin-1-yl-benzenesulfonamide hydrochloride] | > 7.30
O=S(=O)(Nc1ccccc1OC(F)F)c1cccc(N2CCNCC2)c1 [Example 41, N-(2-Difluoromethoxy-phenyl)-3-piperazin-1-yl-benzenesulfonamide hydrochloride] | > 8.00
Cc1ccc(S(=O)(=O)Nc2ccc(OC(F)F)c(OC(F)F)c2)cc1N1CCNCC1 [Example 52, N-(3,4-Bis-difluoromethoxy-phenyl)-4-methyl-3-piperazin-1-yl-benzenesulfonamide hydrochloride] | > 7.30

Next, values leading:

pKi | SMILES
> 7.30 | Cc1ccc(S(=O)(=O)Nc2cccc(OC(F)F)c2)cc1N1CCCNCC1 [Example 96, 3-[1,4]Diazepan-1-yl-N-(3-difluoromethoxy-phenyl)-4-methyl-benzenesulfonamide hydrochloride]
> 7.30 | COc1ccc(OC(F)F)cc1NS(=O)(=O)c1ccc(C)c(N2CCN(C)CC2)c1 [Example 77, N-(5-Difluoromethoxy-2-methoxy-phenyl)-4-methyl-3-(4-methyl-piperazin-1-yl)-benzenesulfonamide trifluoroacetate]
> 6.30 | Cc1ccc(S(=O)(=O)Nc2ccc(OC(F)F)cc2)cc1N1CCN(C)CC1 [Example 88, N-(4-Difluoromethoxy-phenyl)-4-methyl-3-(4-methyl-piperazin-1-yl)-benzenesulfonamide hydrochloride]
> 7.30 | Cc1ccc(S(=O)(=O)Nc2ccc(F)cc2OC(F)F)cc1N1CCN(C)CC1 [Example 79, N-(2-Difluoromethoxy-4-fluoro-phenyl)-4-methyl-3-(4-methyl-piperazin-1-yl)-benzenesulfonamide trifluoroacetate]
> 6.30 | Cc1ccc(NS(=O)(=O)c2ccc(C)c(N3CCCN(C)CC3)c2)cc1OC(F)F [Example 99, N-(3-Difluoromethoxy-4-methyl-phenyl)-4-methyl-3-(4-methyl-[1,4]diazepan-1-yl)-benzenesulfonamide hydrochloride]
> 8.00 | COc1cc(NS(=O)(=O)c2ccc(OC)c(N3CCNCC3)c2)ccc1OC(F)F [Example 93, N-(4-Difluoromethoxy-3-methoxy-phenyl)-4-methoxy-3-piperazin-1-yl-benzenesulfonamide hydrochloride]
> 8.00 | COc1ccc(S(=O)(=O)Nc2ccc3c(c2)OC(F)(F)O3)cc1N1CCNCC1 [Example 83, N-(2,2-Difluoro-benzo[1,3]dioxol-5-yl)-4-methoxy-3-piperazin-1-yl-benzenesulfonamide hydrochloride]
> 7.30 | COc1ccc(OC(F)F)cc1NS(=O)(=O)c1ccc(C)c(N2CCNCC2)c1 [Example 80, N-(5-Difluoromethoxy-2-methoxy-phenyl)-4-methyl-3-piperazin-1-yl-benzenesulfonamide trifluoroacetate]
> 8.00 | COc1ccc(S(=O)(=O)Nc2cc(C)ccc2OC(F)F)cc1N1CCNCC1 [Example 72, N-(2-Difluoromethoxy-5-methyl-phenyl)-4-methoxy-3-piperazin-1-yl-benzenesulfonamide hydrochloride]
> 8.00 | COc1ccc(S(=O)(=O)Nc2ccc(OC(F)F)cc2)cc1N1CCN(C)CC1 [Example 95, N-(4-Difluoromethoxy-phenyl)-4-methoxy-3-(4-methyl-piperazin-1-yl)-benzenesulfonamide hydrochloride]
> 8.00 | O=S(=O)(Nc1cccc(OC(F)F)c1)c1cccc(N2CCNCC2)c1 [Example 68, N-(3-Difluoromethoxy-phenyl)-3-piperazin-1-yl-benzenesulfonamide hydrochloride]
> 6.30 | COc1ccc(NS(=O)(=O)c2ccc(C)c(N3CCNCC3)c2)cc1OC(F)F [Example 85, N-(3-Difluoromethoxy-4-methoxy-phenyl)-4-methyl-3-piperazin-1-yl-benzenesulfonamide hydrochloride]
> 8.00 | Cc1ccc(OC(F)F)c(NS(=O)(=O)c2ccc(C)c(N3CCN[C@H](C)C3)c2)c1 [Example 63, N-(2-Difluoromethoxy-5-methyl-phenyl)-4-methyl-3-((R)-3-methyl-piperazin-1-yl)-benzenesulfonamide hydrochloride]
